Experiments:
[1] = system: E. coli BUM1 carrying the mutant gene (pEp-mut); assay: Growth on M9 plates with SMM, bacteria carrying the mutant gene; format: cell-based, Escherichia coli; details: 50 μM SMM, 48 hrs, 37° C.
Procedure: (§1) This strain also requires proline and thiamin, regardless of AHAS expression. Transformation of BUM1 cells was achieved using a standard heat shock protocol. BUM1 cells were grown in LB or in M9 minimal medium (7 mg/ml Na2HPO4; 3 mg/ml KH2PO4; 0.5 mg/ml NaCl; 1 mg/ml NH4Cl; 0.12 mg/ml MgSO4; 0.35 mg/ml thiamin HCl; 2 mg/ml glucose) supplemented with 200 μg/ml proline. Where appropriate, the M9 medium was supplemented with the BCAAs valine, leucine, and isoleucine (150 μg/ml of each) or with 50 μM SMM. BUM1 transformants were propagated and kept on LB medium supplemented with 100 μg/ml Ampicillin. For functional expression assays, the cells were washed and plated on M9 agar plates and incubated for 48 hrs at 37° C. […]
(§2) The expression vector pEp-empty, an empty plasmid that retains the native ilvEp promoter and ATG start codon, was created by amplification of pAH29 plasmid with the pAH29-empty primer set, and included BamHI and SalI restriction sites for future fusion with the algal genes. Three forms of PiAHAS genes were used for this experiment: PiAHAS full open reading frame (ORF), truncated PiAHAS without the estimated chloroplast targeting peptide (from Serine91), and PimAHAS containing the point mutation (W605S). […] The plates were incubated for 48 hrs (FIG. 3) and bacterial growth was determined. […]

[2] = system: E. coli BUM1 transformed with the wild type PiAHAS genes; assay: Growth on M9 plates with SMM, bacteria transformed with wild type PiAHAS genes; format: cell-based, Escherichia coli; details: 50 μM SMM, 48 hrs, 37° C.
Procedure: as §1, §2

For `COC(=O)c1ccccc1S(=O)(=O)NC(=O)Nc1nc(C)cc(C)n1` [SMM, sulfometuron methyl], the “bacterial growth in presence of SMM” value [1] was “not affected” and the “bacterial growth in presence of SMM” value [2] was “totally inhibited”.
